Measurements: ChEMBL document CHEMBL4033635, “Structure, synthesis and biological properties of the pentacyclic guanidinium alkaloids” (Bioorg Med Chem, 2017)
In brackets after ≈: the same amount, converted by molar mass.

Columns and labels:
[1] = target: Neuronal acetylcholine receptor subunit alpha-7 (Homo sapiens, UniProt P36544); assay: Displacemet of [125I]-alphaBgt from human alpha7 nAChR expressed in rat GH4C1 cells preincubated for 2 to 3 hrs followed by [125I]-alphaBgt addition measured after 5 mins; type: cell-based
Sequence of Neuronal acetylcholine receptor subunit alpha-7 (P36544 whole entry): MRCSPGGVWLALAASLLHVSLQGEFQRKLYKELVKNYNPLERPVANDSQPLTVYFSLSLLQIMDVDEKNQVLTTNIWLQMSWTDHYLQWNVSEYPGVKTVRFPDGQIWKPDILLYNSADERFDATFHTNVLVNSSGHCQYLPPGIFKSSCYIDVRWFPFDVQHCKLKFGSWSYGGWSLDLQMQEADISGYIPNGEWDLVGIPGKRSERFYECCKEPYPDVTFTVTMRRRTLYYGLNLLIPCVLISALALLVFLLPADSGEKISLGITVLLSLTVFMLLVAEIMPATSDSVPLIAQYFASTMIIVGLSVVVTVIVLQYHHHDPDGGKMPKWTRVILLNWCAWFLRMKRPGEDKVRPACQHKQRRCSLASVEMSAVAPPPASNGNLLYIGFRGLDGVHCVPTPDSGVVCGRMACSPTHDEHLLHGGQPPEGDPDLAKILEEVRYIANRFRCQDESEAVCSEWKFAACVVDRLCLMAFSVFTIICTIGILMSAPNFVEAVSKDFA

[2] = Displacement of [125I]-alphaBgt from Torpedo californica muscle-type nAChR preincubated for 2 to 3 hrs followed by [125I]-alphaBgt addition addition measured after 5 mins; set-up: species or system Tetronarce californica
[3] = tested on: HeLa; assay: Antiproliferative activity against human HeLa cells; type: functional, cell-based
[4] = tested on: K562; assay: Growth inhibition of human K562 cells; type: functional
[5] = target: Eukaryotic translation initiation factor 5A-1 (Homo sapiens) (UniProt P63241); assay: Inhibition of eIF5A-1 (unknown origin) at 1 uM
Sequence of Eukaryotic translation initiation factor 5A-1 (Homo sapiens) (P63241 whole entry): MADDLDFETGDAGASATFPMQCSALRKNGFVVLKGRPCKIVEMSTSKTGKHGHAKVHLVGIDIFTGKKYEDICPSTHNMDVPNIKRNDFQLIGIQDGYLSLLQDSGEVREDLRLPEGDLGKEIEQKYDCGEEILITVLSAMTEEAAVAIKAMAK

[6] = Inhibition of rabbit sercoplasmic reticulum Ca+-ATPase; set-up: species or system Oryctolagus cuniculus
[7] = Inhibition of pig cerebral cortex Na+/K+-ATPase; set-up: species or system Sus scrofa
[8] = tested on: Staphylococcus aureus; assay: Antibacterial activity against methicilin-resistant Staphylococcus aureus; type: functional
[9] = tested on: Human immunodeficiency virus 1; assay: Antiviral activity against HIV1 LAV in human PBM cells; type: functional, cell-based; conditions: Human immunodeficiency virus 1, LAV
[10] = tested on: Plasmodium falciparum; assay: Antiprotozoal activity against chloroquine-resistant Plasmodium falciparum W2 after 48 hrs by lactate dehydrogenase assay; type: functional; conditions: W2, 48 h
[11] = tested on: Staphylococcus aureus; assay: Antibacterial activity against Staphylococcus aureus; type: functional
[12] = tested on: Plasmodium falciparum; assay: Antiprotozoal activity against chloroquine-sensitive Plasmodium falciparum D6 after 48 hrs by lactate dehydrogenase assay; type: functional; conditions: D6, 48 h
[13] = tested on: Human immunodeficiency virus 1; assay: Inhibition of HIV-1 reverse transcriptase at 10 uM
[14] = tested on: K562; assay: Cytotoxicity against human K562 cells; type: functional, cell-based
[15] = Inhibition of Ca2+-ATPase (unknown origin); set-up: species or system Homo sapiens

With `CCC[C@@H]1CCC[C@@]2(N=C3N[C@]4(CCC=C[C@H](CC)O4)C[C@@H]4CC[C@H]([C@@H]2C(=O)OCCCCCCCCCCCCCCCC(=O)N(CCCN)CCCCN)N34)O1` the Ki [1] was 8000 to 310000 nM and the Ki [2] was 8000 to 310000 nM.
With `CC/C=C/[C@H]1CC[C@@]2(C[C@@H]3CC[C@@H]4[C@H](C(=O)OCCCCCCCCCCCCCCCC(=O)N(CCCN)CCCCN)[C@]5(CCC[C@@H](C)O5)N=C(N2)N34)O1` the IC50 [3] was 580 to 2100 nM.
With `CC[C@H]1C=CCC[C@@]2(C[C@@H]3CC[C@@H]4C(C(=O)OC/C=C/c5ccccc5)[C@]5(CCC[C@@H](C)O5)NC(=[N+]34)N2)O1` (stereo partly drawn) the GI50 [4] was less than 1000 nM.
For `CC/C=C/[C@@H]1CC[C@]2(C[C@H]3CC[C@H]4[C@@H](C(=O)OC(CC)CCCCCCCCCCCCC[C@@H]5O[C@](O)(CCN)[C@H](O)N(CCCN)C5=O)[C@@]5(CCC[C@H](C)O5)NC(=[N+]34)N2)O1` (stereo partly drawn), the inhibition [5] was 50%.
Molecule `CC/C=C/[C@H]1CC[C@@]2(C[C@@H]3CC[C@@H]4[C@H](C(=O)OCCCCCCCCCCCCCCC(O)C(=O)NCCCN)[C@]5(CCC[C@@H](C)O5)N=C(N2)N34)O1` (stereo partly drawn) has a Ki [1] of 8000 to 310000 nM, an IC50 [3] of 580 to 2100 nM and a Ki [2] of 8000 to 310000 nM.
In the case of `CC[C@H]1C=CCC[C@@]2(C[C@@H]3CC[C@@H]4[C@H](C(=O)OCCCCCCCCCCCCCCCC(=O)N(CCCN)CCCN)[C@]5(CCC[C@@H](C)O5)NC(=N2)N34)O1`, the IC50 [6] is reported as 10000 nM, the IC50 [7] is reported as 2000 nM and the MIC [8] is reported as 0.63 µg/mL (≈ 0.817 µM). It also gave an EC50 [9] of 11 nM, an EC90 [9] of 46 nM and an IC50 [10] of 0.11 to 0.12 µg/mL (≈ 0.143 to 0.156 µM). The MIC [11] was 0.63 µg/mL (≈ 0.817 µM), the IC50 [12] was 0.11 to 0.12 µg/mL (≈ 0.143 to 0.156 µM) and the inhibition [13] was 55 to 64%.
For `CC[C@H]1C=CCC[C@@]2(C[C@@H]3CC[C@@H]4[C@H](C(=O)OCCCCCCCCCCCCCCCC(=O)N(CCCN)C[C@@H](O)CCN)[C@]5(CCC[C@@H](C)O5)NC(=N2)N34)O1`, the EC50 [9] was 40 nM and the EC90 [9] was 120 nM.
Molecule `NCCCCN(CCCN)C(=O)CCCCCCCCCCCCCCCc1ccc2c(c1)[C@@H]1C[C@]3(CCCCO3)NC3=[N+]1[C@@H]2C[C@@]1(CCCCO1)N3.[Cl-]` has an IC50 [14] of 0.52 µg/mL and an inhibition [13] of 64%.
In the case of `NCCCCN(CCCN)C(=O)CCCCCCCCCCCCCCC(=O)O[C@H]1C[C@H]2C[C@@]3(CCCCCO3)NC3=[N+]2[C@H]1C[C@]1(CCCCO1)N3`, the IC50 [15] is reported as 3000 nM.
In the case of `NCCCCN(CCCN)C(=O)CCCCCCCCCCCCCCC(=O)O[C@H]1C[C@H]2C[C@@]3(CCCCO3)NC3=[N+]2[C@@H]1C[C@@]1(CCCCCO1)N3`, the IC50 [15] is reported as 1000 nM.
